Experimental data from US12336989B2, “Transmucosal methods for treating psychiatric and neurological conditions” (INTRA-CELLULAR THERAPIES, INC., priority 2017, dated 2025).

How the values were obtained:
[1] = Example 2: pharmacokinetics of oral dosing in dogs; type: in vivo, beagle dogs; conditions: sublingual and subcutaneous dosing at 1.0 mg/kg vs oral 15 mg/kg
Method: For control, the dogs are administered empty capsules. For the Compound of Formula I, the dogs are administered normal-release oral capsules. Blood samples are obtained at 0.25 hours, 0.5 hours, 1 hour, 4 hours, 8 hour and 24 hours. […] Cmax, Tmax and area-under-the-curve (AUC, 0-24 hours) are calculated using Phoenix WinNonlin software.

[2] = tested on: muscarinic receptors; conditions: cited from earlier work
[3] = target: T1, 5-HT2C receptors (Homo sapiens, UniProt P28335); conditions: cited from earlier work
T1 sequence (P28335 33-458): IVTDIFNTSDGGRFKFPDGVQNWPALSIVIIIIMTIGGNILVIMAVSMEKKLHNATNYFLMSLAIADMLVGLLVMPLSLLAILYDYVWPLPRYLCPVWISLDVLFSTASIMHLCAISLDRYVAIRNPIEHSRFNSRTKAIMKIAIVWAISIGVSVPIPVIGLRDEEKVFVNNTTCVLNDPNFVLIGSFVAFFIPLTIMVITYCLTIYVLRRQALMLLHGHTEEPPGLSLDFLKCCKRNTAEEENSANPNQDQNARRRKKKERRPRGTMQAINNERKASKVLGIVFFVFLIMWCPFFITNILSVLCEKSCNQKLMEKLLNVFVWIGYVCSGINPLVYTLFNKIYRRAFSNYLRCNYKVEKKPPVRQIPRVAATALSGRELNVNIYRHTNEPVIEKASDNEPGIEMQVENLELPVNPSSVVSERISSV

[4] = target: H1 histaminergic receptors (Homo sapiens, UniProt P35367); conditions: cited from earlier work
Sequence of H1 histaminergic receptors (P35367 whole entry): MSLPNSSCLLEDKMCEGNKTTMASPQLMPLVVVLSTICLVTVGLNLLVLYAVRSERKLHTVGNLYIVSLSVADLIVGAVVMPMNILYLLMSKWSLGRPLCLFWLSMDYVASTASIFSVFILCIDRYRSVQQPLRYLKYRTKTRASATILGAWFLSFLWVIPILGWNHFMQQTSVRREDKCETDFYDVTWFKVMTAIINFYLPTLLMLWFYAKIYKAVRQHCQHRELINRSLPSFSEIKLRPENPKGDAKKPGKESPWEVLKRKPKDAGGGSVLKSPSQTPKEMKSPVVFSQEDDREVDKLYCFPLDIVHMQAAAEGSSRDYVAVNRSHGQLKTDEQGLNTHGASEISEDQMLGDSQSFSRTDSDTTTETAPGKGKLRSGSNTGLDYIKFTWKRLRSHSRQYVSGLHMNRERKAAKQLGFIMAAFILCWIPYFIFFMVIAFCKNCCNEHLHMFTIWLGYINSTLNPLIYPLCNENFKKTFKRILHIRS

## CN1CCN2c3c(cccc31)[C@@H]1CN(CCCC(=O)c3ccc(F)cc3)CC[C@@H]12 [Compound of Formula I, 1-(4-fluoro-phenyl)-4-((6bR,10aS)-3-methyl-2,3,6b,9,10,10a-hexahydro-1H,7H-pyrido[3′,4′:4,5]pyrrolo[1,2,3-de]quinoxalin-8-yl)-butan-1-one]
[1]
  24-hour AUC, times higher than oral dosing at 15 mg/kg: about three
[2]
  binding to muscarinic receptors: negligible binding
[3]
  binding to 5-HT2C receptors: negligible binding
[4]
  binding to H1 histaminergic receptors: negligible binding
